Laboratory results published in paper PMC2663715, “Snapshots of Catalysis in the E1 Subunit of the Pyruvate Dehydrogenase Multienzyme Complex” (Structure(London, England:1993), 2008).

Key:
[1] = molecular target: T1, E1p/E2p-PSBD complex (pyruvate dehydrogenase E1 subunit with E2p peripheral subunit binding domain) (Geobacillus stearothermophilus, UniProt P21873+P21874); test: X-ray crystal structure, […] A
T1 construct: gene pdhA; alpha2beta2 heterotetramer with one E2p PSBD; recombinant in E. coli TG1 recO (plasmids pKBstE1a, pKBstE1b); he-3-deazaThDP crystals grown with E2p di-domain (lipoyl domain-linker-PSBD); with Dihydrolipoyllysine-residue acetyltransferase component of pyruvate dehydrogenase complex

[2] = molecular target: T2, E1p/E2p-PSBD complex (pyruvate dehydrogenase E1 subunit with E2p peripheral subunit binding domain) (Geobacillus stearothermophilus, UniProt P21873+P21874, P21873:I207A); test: X-ray crystal structure, […] A; settings: 5 mM 3-deazaThDP; crystals at pH 5.0; ThDP site
T2 construct: gene pdhA; alpha2beta2 heterotetramer with one E2p PSBD; recombinant in E. coli TG1 recO (plasmids pKBstE1a, pKBstE1b); he-3-deazaThDP crystals grown with E2p di-domain (lipoyl domain-linker-PSBD); with Dihydrolipoyllysine-residue acetyltransferase component of pyruvate dehydrogenase complex

Structure (SMILES) | X-ray crystal structure, 2.3 A ([1]; 10 mM pyruvate soak 1 week into 3-deazaThDP crystals, density in two of four sites, orientation not definitive) | X-ray crystal structure, 2.3 A ([1]; Mg2+, pyruvate soaked in, ThDP site) | X-ray crystal structure, 2.35 A [2]
CC(=O)C(=O)O [pyruvate] | density in the active-site pocket that is likely to be due to pyruvate binding | – | –
Cc1ncc(Cc2csc(CCOP(=O)(O)OP(=O)(O)O)c2C)c(N)n1 [3-deazaThDP] | – | we have solved the structure of the E1p/E2p-PSBD complex with bound 3-deazaThDP and pyruvate | crystal structure of the complex of 3-deazaThDP with the G. stearothermophilus E1p I206Aα mutant
